# Tested on: not listed separately
# Experiment: Stability assessed as ionization at pH 7.4
# Assay type: physicochemical
# Settings: not given
row,Activity,Compound
1,34%,COC(=O)CCCNC[C@@H](C)[C@H]1CC[C@H]2[C@@H]3CC=C4C[C@@H](OC(=O)CN(C)C)CC[C@]4(C)[C@H]3CC[C@]12C
2,99%,COC(=O)CCCNC[C@@H](C)[C@H]1CC[C@H]2[C@@H]3CC=C4C[C@@H](OC(=O)CCC(=O)O)CC[C@]4(C)[C@H]3CC[C@]12C

# Tested on: not listed separately
# Experiment: Lipophilicity, log D of the compound
# Assay type: physicochemical
# Settings: octanol/water
row,logD,Compound
1,5.2,COC(=O)CCCNC[C@@H](C)[C@H]1CC[C@H]2[C@@H]3CC=C4C[C@@H](OC(=O)c5cccnc5)CC[C@]4(C)[C@H]3CC[C@]12C
2,4.4,COC(=O)CCCNC[C@@H](C)[C@H]1CC[C@H]2[C@@H]3CC=C4C[C@@H](OC(=O)CN(C)C)CC[C@]4(C)[C@H]3CC[C@]12C
3,5.1,CCC(=O)O[C@H]1CC[C@@]2(C)C(=CC[C@H]3[C@@H]4CC[C@H]([C@H](C)CNCCCC(=O)OC)[C@@]4(C)CC[C@@H]32)C1
4,5.6,CCCC(=O)O[C@H]1CC[C@@]2(C)C(=CC[C@H]3[C@@H]4CC[C@H]([C@H](C)CNCCCC(=O)OC)[C@@]4(C)CC[C@@H]32)C1
5,6,COC(=O)CCCNC[C@@H](C)[C@H]1CC[C@H]2[C@@H]3CC=C4C[C@@H](OC(=O)CC(C)C)CC[C@]4(C)[C@H]3CC[C@]12C
6,4.1,COC(=O)CCCNC[C@@H](C)[C@H]1CC[C@H]2[C@@H]3CC=C4C[C@@H](OC(=O)CCC(=O)O)CC[C@]4(C)[C@H]3CC[C@]12C
7,5.8,COC(=O)CCCNC[C@@H](C)[C@H]1CC[C@H]2[C@@H]3CC=C4C[C@@H](OC(=O)C(C)(C)C)CC[C@]4(C)[C@H]3CC[C@]12C

# Tested on: not listed separately
# Experiment: Cytotoxicity against rat L6 cells
# Assay type: cell-based
# Settings: read-out: TD50 (the source's name)
row,Compound,CC50
1,CC(=O)O[C@H]1CC[C@@]2(C)C(=CC[C@H]3[C@@H]4CC[C@H]([C@H](C)CCC(=O)NCCCCCC(=O)O)[C@@]4(C)CC[C@@H]32)C1,63 µM
2,COC(=O)CCCNC[C@@H](C)[C@H]1CC[C@H]2[C@@H]3CC=C4C[C@@H](OC(=O)c5cccnc5)CC[C@]4(C)[C@H]3CC[C@]12C,9.8 µM
3,COC(=O)CCCNC[C@@H](C)[C@H]1CC[C@H]2[C@@H]3CC=C4C[C@@H](OC(=O)CN(C)C)CC[C@]4(C)[C@H]3CC[C@]12C,24 µM
4,CCC(=O)O[C@H]1CC[C@@]2(C)C(=CC[C@H]3[C@@H]4CC[C@H]([C@H](C)CNCCCC(=O)OC)[C@@]4(C)CC[C@@H]32)C1,21.9 µM
5,CCCC(=O)O[C@H]1CC[C@@]2(C)C(=CC[C@H]3[C@@H]4CC[C@H]([C@H](C)CNCCCC(=O)OC)[C@@]4(C)CC[C@@H]32)C1,30.7 µM
6,COC(=O)CCCNC[C@@H](C)[C@H]1CC[C@H]2[C@@H]3CC=C4C[C@@H](OC(=O)CC(C)C)CC[C@]4(C)[C@H]3CC[C@]12C,33.2 µM
7,COC(=O)CCCNC[C@@H](C)[C@H]1CC[C@H]2[C@@H]3CC=C4C[C@@H](OC(=O)CCC(=O)O)CC[C@]4(C)[C@H]3CC[C@]12C,76.7 µM
8,COC(=O)CCCNC[C@@H](C)[C@H]1CC[C@H]2[C@@H]3CC=C4C[C@@H](OC(=O)C(C)(C)C)CC[C@]4(C)[C@H]3CC[C@]12C,11.1 µM

# Tested on: Trypanosoma brucei rhodesiense
# Experiment: Antitrypanosomal activity against Trypanosoma brucei rhodesiense blood stream form
# Assay type: functional, organism-based
# Settings: not given
row,EC50,Compound
1,56 µM,CC(=O)O[C@H]1CC[C@@]2(C)C(=CC[C@H]3[C@@H]4CC[C@H]([C@H](C)CCC(=O)NCCCCCC(=O)O)[C@@]4(C)CC[C@@H]32)C1
2,0.8 µM,COC(=O)CCCNC[C@@H](C)[C@H]1CC[C@H]2[C@@H]3CC=C4C[C@@H](OC(=O)c5cccnc5)CC[C@]4(C)[C@H]3CC[C@]12C
3,6.2 µM,COC(=O)CCCNC[C@@H](C)[C@H]1CC[C@H]2[C@@H]3CC=C4C[C@@H](OC(=O)CN(C)C)CC[C@]4(C)[C@H]3CC[C@]12C
4,0.8 µM,CCC(=O)O[C@H]1CC[C@@]2(C)C(=CC[C@H]3[C@@H]4CC[C@H]([C@H](C)CNCCCC(=O)OC)[C@@]4(C)CC[C@@H]32)C1
5,1.6 µM,CCCC(=O)O[C@H]1CC[C@@]2(C)C(=CC[C@H]3[C@@H]4CC[C@H]([C@H](C)CNCCCC(=O)OC)[C@@]4(C)CC[C@@H]32)C1
6,3.9 µM,COC(=O)CCCNC[C@@H](C)[C@H]1CC[C@H]2[C@@H]3CC=C4C[C@@H](OC(=O)CC(C)C)CC[C@]4(C)[C@H]3CC[C@]12C
7,9.8 µM,COC(=O)CCCNC[C@@H](C)[C@H]1CC[C@H]2[C@@H]3CC=C4C[C@@H](OC(=O)CCC(=O)O)CC[C@]4(C)[C@H]3CC[C@]12C
8,2.2 µM,COC(=O)CCCNC[C@@H](C)[C@H]1CC[C@H]2[C@@H]3CC=C4C[C@@H](OC(=O)C(C)(C)C)CC[C@]4(C)[C@H]3CC[C@]12C

# Tested on: Trypanosoma cruzi
# Experiment: Antitrypanosomal activity against Trypanosoma cruzi amastigotes
# Assay type: functional, organism-based
# Settings: not given
row,EC50,Compound
1,41.9 µM,CC(=O)O[C@H]1CC[C@@]2(C)C(=CC[C@H]3[C@@H]4CC[C@H]([C@H](C)CCC(=O)NCCCCCC(=O)O)[C@@]4(C)CC[C@@H]32)C1
2,2.51 µM,COC(=O)CCCNC[C@@H](C)[C@H]1CC[C@H]2[C@@H]3CC=C4C[C@@H](OC(=O)c5cccnc5)CC[C@]4(C)[C@H]3CC[C@]12C
3,11.6 µM,COC(=O)CCCNC[C@@H](C)[C@H]1CC[C@H]2[C@@H]3CC=C4C[C@@H](OC(=O)CN(C)C)CC[C@]4(C)[C@H]3CC[C@]12C
4,7.6 µM,CCC(=O)O[C@H]1CC[C@@]2(C)C(=CC[C@H]3[C@@H]4CC[C@H]([C@H](C)CNCCCC(=O)OC)[C@@]4(C)CC[C@@H]32)C1
5,1.7 µM,CCCC(=O)O[C@H]1CC[C@@]2(C)C(=CC[C@H]3[C@@H]4CC[C@H]([C@H](C)CNCCCC(=O)OC)[C@@]4(C)CC[C@@H]32)C1
6,10.8 µM,COC(=O)CCCNC[C@@H](C)[C@H]1CC[C@H]2[C@@H]3CC=C4C[C@@H](OC(=O)CC(C)C)CC[C@]4(C)[C@H]3CC[C@]12C
7,13.7 µM,COC(=O)CCCNC[C@@H](C)[C@H]1CC[C@H]2[C@@H]3CC=C4C[C@@H](OC(=O)CCC(=O)O)CC[C@]4(C)[C@H]3CC[C@]12C
8,9.7 µM,COC(=O)CCCNC[C@@H](C)[C@H]1CC[C@H]2[C@@H]3CC=C4C[C@@H](OC(=O)C(C)(C)C)CC[C@]4(C)[C@H]3CC[C@]12C

# Tested on: not listed separately
# Experiment: Dissociation constant, pKa of the compound
# Assay type: physicochemical
# Settings: not given
row,pKa,Compound
1,7.1,COC(=O)CCCNC[C@@H](C)[C@H]1CC[C@H]2[C@@H]3CC=C4C[C@@H](OC(=O)CN(C)C)CC[C@]4(C)[C@H]3CC[C@]12C
2,4.4,COC(=O)CCCNC[C@@H](C)[C@H]1CC[C@H]2[C@@H]3CC=C4C[C@@H](OC(=O)CCC(=O)O)CC[C@]4(C)[C@H]3CC[C@]12C

# Tested on: Leishmania donovani
# Experiment: Antitrypanosomal activity against Leishmania donovani amastigotes
# Assay type: functional, organism-based
# Settings: not given
row,Compound,EC50
1,CC(=O)O[C@H]1CC[C@@]2(C)C(=CC[C@H]3[C@@H]4CC[C@H]([C@H](C)CCC(=O)NCCCCCC(=O)O)[C@@]4(C)CC[C@@H]32)C1,2 µM
2,COC(=O)CCCNC[C@@H](C)[C@H]1CC[C@H]2[C@@H]3CC=C4C[C@@H](OC(=O)c5cccnc5)CC[C@]4(C)[C@H]3CC[C@]12C,13.7 µM
3,COC(=O)CCCNC[C@@H](C)[C@H]1CC[C@H]2[C@@H]3CC=C4C[C@@H](OC(=O)CN(C)C)CC[C@]4(C)[C@H]3CC[C@]12C,18.5 µM
4,CCC(=O)O[C@H]1CC[C@@]2(C)C(=CC[C@H]3[C@@H]4CC[C@H]([C@H](C)CNCCCC(=O)OC)[C@@]4(C)CC[C@@H]32)C1,12.1 µM
5,CCCC(=O)O[C@H]1CC[C@@]2(C)C(=CC[C@H]3[C@@H]4CC[C@H]([C@H](C)CNCCCC(=O)OC)[C@@]4(C)CC[C@@H]32)C1,6.8 µM
6,COC(=O)CCCNC[C@@H](C)[C@H]1CC[C@H]2[C@@H]3CC=C4C[C@@H](OC(=O)CC(C)C)CC[C@]4(C)[C@H]3CC[C@]12C,4.9 µM
7,COC(=O)CCCNC[C@@H](C)[C@H]1CC[C@H]2[C@@H]3CC=C4C[C@@H](OC(=O)CCC(=O)O)CC[C@]4(C)[C@H]3CC[C@]12C,35.7 µM
8,COC(=O)CCCNC[C@@H](C)[C@H]1CC[C@H]2[C@@H]3CC=C4C[C@@H](OC(=O)C(C)(C)C)CC[C@]4(C)[C@H]3CC[C@]12C,11.3 µM
